According to patent US20210186930A1, “Methods of Treating Renal Disease Associated With Chronic Kidney Disease Such as Alport Syndrome” (UNIVERSITY OF MIAMI, priority 2018, published 2021):
Entries after “also recorded” stand apart in the source; their conditions may differ.

Assays:
Col4a3−/− mice [1] = assay: Renal function in Col4a3-/- mice treated with ezetimibe, ramipril or both (Example 1, FIG. 5); type: in vivo, mouse
Excerpt: Albumin/creatinine ratio: All albuminuria values are expressed as μg albumin/mg creatinine. Albumin/creatinine determined by ELISA (Bethyl Laboratories) for albumin detection and a biochemical assay based on the Jaffe method for creatinine detection (Stanbio) as previously described. Serology: Immediately prior to sacrifice, a blood sample was collected for the determination of BUN and lipid panel analysis in the comparative laboratory core facility of the University of Miami. Serum creatinine was determined by tandem mass spectrometry (UAB-UCSD O'Brien Core Center, University of Alabama). The following experiment was performed to investigate which treatment, ezetimibe (EZ), ramipril (Ramp) or the combination of both drugs (EZ+Ramp), would best preserve renal function in Col4a3 knockout mice, all drugs were administered to 4-week-old Col4a3−/− mice for 4 weeks as follows: ezetimibe (Ez) was orally administered at a concentration of 5 mg/kg BW, ramipril was added to the drinking water at a concentration that would lead to a daily ramipril uptake of 10 mg/kg BW. All mice were sacrificed at 8 weeks of age. The following four groups of mice were analyzed: Col4a3^+/+, Col4a3^−/−+Ez, Col4a3^−/−+Ramp and Col4a3^−/−+Ez+Ramp.

Col4a3−/− mice [2] = assay: Renal cortex lipid content in Col4a3-/- mice (Example 4, FIG. 7); type: in vivo, mouse; conditions: treated vs untreated Col4a3−/− mice; ezetimibe 5 mg/kg, ramipril 10 mg/kg, 4 weeks
Protocol: Determination of cholesterol content in kidney cortex: Tissue from kidney cortexes was homogenized in hypotonic buffer (10 mM HEPES pH7.0, 15 mM KCl, 1 mM MgCl2, 10 mM phosphatase inhibitors). Lipids from 100 μl of the homogenate were extracted with 1 ml of hexane:isopropanol (3:2, v/v), dried and reconstituted in 100 μl of isopropanol-NP40 (9:1, v/v). Tissue fractions not soluble in the organic solvent, were further dried, reconstituted in 8 M urea, and assayed for protein concentration using Pierce BCA protein assay kit (ThermoFisher Scientific, MA, USA). Total cholesterol from lipid extracts was determined by the enzymatic method as previously described (Robinet, P., Wang, Z., Hazen, S. L. & Smith, J. D. A simple and sensitive enzymatic method for cholesterol quantification in macrophages and foam cells. Journal of lipid research 51, 3364-3369, 2010). Briefly, endogenous peroxides present were eliminated by incubating samples and standards with catalase (Sigma-Aldrich, MO, USA), 45 U/ml final concentration, for 15 min at 37° C. […] The plates were incubated at 37° C. for 30 min and fluorescence was read at 530 nm (Ex) and 580 nm (Em) in a plate reader (SpectraMax M5, Molecular Devices, CA, USA). Cholesteryl esters (CE) quantification was based on the method described from Toshimi M, et al. Briefly, 25 μl of samples was mixed with 150 μl of free cholesterol decomposition reagent (45 U/ml catalase, 1 U/ml cholesterol oxidase) and incubated 2-4 h at 37° C., and then the final volume was brought up to 250 μl prior to determining free and total cholesterol remaining. Total cholesterol remaining was determined by mixing 50 μl of end product reaction with 50 μl of reagent A, as described above. Free cholesterol remaining was determined similarly, but without including cholesterol esterase in the reagent. CE was calculated by the formula CE=(TC−FC)×DF, where TC is the total cholesterol remaining, FC the free cholesterol remaining and DF the dilution factor, in this case, 10. Lipid content: Oil Red 0 staining was performed on frozen tissue sections and triglyceride content was determined on snap frozen kidney tissue as described above. The following experiment was performed to investigate which treatment, ezetimibe (EZ), ramipril (Ramp) or the combination of both drugs (EZ+Ramp), would best preserve renal function in Col4a3 knockout mice, all drugs were administered to 4-week-old Col4a3−/− mice for 4 weeks as follows: ezetimibe (Ez) was orally administered at a concentration of 5 mg/kg BW, ramipril was added to the drinking water at a concentration that would lead to a daily ramipril uptake of 10 mg/kg BW. All mice were sacrificed at 8 weeks of age. The following four groups of mice were analyzed: Col4a3^+/+, Col4a3^−/−+Ez, Col4a3^−/−+Ramp and Col4a3^−/−+Ez+Ramp.

[3] = cited from earlier work
[4] = cited from earlier work; remark: listed apart in the source
Col4a3−/− mice [5] = assay: Mesangial expansion (PAS) and renal fibrosis (Picrosirius Red) in Col4a3-/- mice (Example 3, FIG. 6); type: in vivo, mouse; conditions: treated vs untreated Col4a3−/− mice; ezetimibe 5 mg/kg, ramipril 10 mg/kg, 4 weeks
Protocol: Assessment of mesangial expansion: Periodic acid-Schiff (PAS) staining of 4 μm-thick tissue sections was performed using a standard protocol. Twenty glomeruli per section were analyzed for mesangial expansion by semi quantitative analysis (scale 0-4) performed by two blinded independent investigators.
Picrosirius red staining: Paraffin-embedded sections (4 μm thick) were deparaffinized with xylene and a graded alcohol series. Sections were rinsed for 5 min in distilled water, stained for 1 hour with picrosirius red in saturated aqueous picric acid, examined under a light microscope and photomicrographs were taken. Histological images were visualized using a light microscope (Olympus BX 41, Tokyo, Japan) at 40× magnification and analyzed using Image J software.
The following experiment was performed to investigate which treatment, ezetimibe (EZ), ramipril (Ramp) or the combination of both drugs (EZ+Ramp), would best preserve renal function in Col4a3 knockout mice, all drugs were administered to 4-week-old Col4a3−/− mice for 4 weeks as follows: ezetimibe (Ez) was orally administered at a concentration of 5 mg/kg BW, ramipril was added to the drinking water at a concentration that would lead to a daily ramipril uptake of 10 mg/kg BW. All mice were sacrificed at 8 weeks of age. The following four groups of mice were analyzed: Col4a3^+/+, Col4a3^−/−+Ez, Col4a3^−/−+Ramp and Col4a3^−/−+Ez+Ramp.
PAS staining was performed to detect and quantify mesangial expansion, Picrossirius Red staining to detect and quantify renal fibrosis in treated compared to untreated Col4a3^−/− mice. […] Representative images for PAS staining are shown in FIG. 6A and of Picrosirius Red staining to detect fibrosis in […]. Bar graph quantifications for both are shown in FIGS. 6C and 6D, respectively.

human podocytes = assay: Collagen treatment of human podocytes: lipid content and free fatty acid uptake (FIG. 1); type: cell-based
Protocol: (§1) Differentiated human podocytes were serum starved for 16 hours followed by 18 hours treatment with 50 μg/mL collagen I (Corning), collagen II (Discoverx), and collagen IV (Sigma Aldrich)
Lipid content determination: Following collagen treatment, podocyte lipid content was assessed after fixation with PFA and staining with Bodipy 493/503 and Cell Mask Blue (Invitrogen). The Opera High Content Screening system and Acapella Image Analysis software was used to determine the number of Bodipy 493/503 positive lipid droplets per cell. Triglyceride content was assessed using the Triglyceride Quantification Kit (Cell Biolabs) following manufacturer instructions and normalizing to cell protein content using the BCA method.
Free fatty acid uptake was assessed using the fluorometric free fatty acid uptake Kit (Abcam) in Ctrl and Col I treated podocytes after 1 hour serum starvation. The uptake of FFA was analyzed using a fluorimeter (SpectraMax5, […]).

DDR1 = target: T1, DDR1 (Homo sapiens, UniProt Q08345); assay: DDR1 activation in human podocytes treated with collagen (FIG. 2); type: cell-based
T1 construct: Differentiated human podocytes were serum starved for 16 hours followed by 18 hours treatment with 50 μg/mL collagen I; endogenous in cells; host or cells: conditionally immortalized human podocyte cell line (Saleem et al. 2002), differentiated
Protocol: as §1
Isolation of plasma membranes: Preparation of membrane pellets was performed by ultracentrifugation of cell pellets suspended in homogenization media (15 mM KCl, 1.5 mM MgCl2, 10 mM HEPES, 1 mM DTT) supplemented with protease inhibitors. Effective separation was verified by WB for Na-K ATPase.

[6] = Col4a3−/− mice treated 4 weeks, ezetimibe 5 mg/kg, ramipril 10 mg/kg, vs untreated Col4a3−/−
[7] = Col4a3−/− mice, 4 weeks treatment

T1 sequence (Q08345 19-913): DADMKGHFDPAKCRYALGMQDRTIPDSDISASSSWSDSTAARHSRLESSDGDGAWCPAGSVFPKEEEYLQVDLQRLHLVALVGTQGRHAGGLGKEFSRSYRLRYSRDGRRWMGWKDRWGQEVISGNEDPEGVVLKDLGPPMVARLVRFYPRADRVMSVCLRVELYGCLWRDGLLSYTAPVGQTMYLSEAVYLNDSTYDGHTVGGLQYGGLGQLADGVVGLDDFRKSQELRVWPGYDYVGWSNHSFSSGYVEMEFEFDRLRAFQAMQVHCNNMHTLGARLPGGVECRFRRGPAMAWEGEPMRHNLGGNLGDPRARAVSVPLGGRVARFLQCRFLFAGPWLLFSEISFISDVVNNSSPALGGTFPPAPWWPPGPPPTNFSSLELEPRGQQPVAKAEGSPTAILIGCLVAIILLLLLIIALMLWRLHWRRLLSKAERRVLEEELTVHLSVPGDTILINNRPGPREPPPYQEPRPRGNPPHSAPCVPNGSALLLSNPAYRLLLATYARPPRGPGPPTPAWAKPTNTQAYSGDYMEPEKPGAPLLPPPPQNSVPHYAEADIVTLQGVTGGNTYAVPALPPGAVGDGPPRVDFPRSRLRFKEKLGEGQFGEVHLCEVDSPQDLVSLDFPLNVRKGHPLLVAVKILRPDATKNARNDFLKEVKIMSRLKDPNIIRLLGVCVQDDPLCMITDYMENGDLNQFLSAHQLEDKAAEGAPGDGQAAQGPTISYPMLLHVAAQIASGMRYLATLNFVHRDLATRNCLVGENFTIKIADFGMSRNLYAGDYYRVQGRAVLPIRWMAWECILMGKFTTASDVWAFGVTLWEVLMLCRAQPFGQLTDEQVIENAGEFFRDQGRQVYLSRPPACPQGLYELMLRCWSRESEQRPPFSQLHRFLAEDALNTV

For `CCOC(=O)[C@H](CCc1ccccc1)N[C@@H](C)C(=O)N1[C@H](C(=O)O)C[C@@H]2CCC[C@@H]21` [ramipril, (2S,3aS,6aS)-1[(S)—N—[(S)-1-Carboxy-3-phenylpropyl]alanyl]octahydrocyclop-enta[b]pyrrole-2-carboxylic acid, 1-ethyl ester], the “albumin/creatinine ratio (ACR)” value (Col4a3−/− mice [1]; 4-week-old Col4a3−/− mice treated 4 weeks, ezetimibe 5 mg/kg BW oral, ramipril 10 mg/kg BW in drinking water, vs untreated Col4a3−/−) was “significant reduction in the albumin/creatinine ratio; also recorded: significant decrease in the albumin/creatinine ratio”, the “serum BUN levels” value (Col4a3−/− mice [1]; [6]) was “significant reduction in the serum BUN levels” and the serum creatinine levels (Col4a3−/− mice [1]; [6]) was “significant reduction in the serum creatinine levels”. The “reduction of BUN levels, compared to ezetimibe alone” value (Col4a3−/− mice [1]; [7]) was “superior effect on reducing BUN levels”, the “reduction of serum creatinine, compared to ezetimibe alone” value (Col4a3−/− mice [1]; [7]) was “superior effect on reducing serum creatinine levels” and the “esterified cholesterol (CE) content in kidney cortexes” value (Col4a3−/− mice [2]) was “reduces the esterified cholesterol content; also recorded: significantly decreased”. For the same molecule, the “triglyceride (TG) content in kidney cortexes” value (Col4a3−/− mice [2]) was “no effect on the Triglyceride content; also recorded: not observed”, the blood cholesterol levels ([3]; general knowledge stated in the patent) was “little or no effect” and the “peripheral arterial resistance and blood pressure” value ([3]; hypertensive patients) was “reduction in blood pressure without a compensatory rise in heart rate”. The mortality ([3]; patients with clinical signs of congestive heart failure after surviving an acute myocardial infarction) was “reduce mortality”, the “solubility in polar organic solvents and buffered aqueous solutions” value [4] was “soluble” and the “mesangial expansion (PAS staining, score)” value (Col4a3−/− mice [5]) was “significant reduction; also recorded: significantly reduced mesangial expansion”. For the same molecule, the “renal fibrosis (Picrosirius Red staining)” value (Col4a3−/− mice [5]) was “significant reduction; also recorded: significantly reduced”.
For “Col I: collagen I (Corning), 50 μg/mL, used to treat human podocytes”, the “cholesterol ester to total cholesterol ratio” value (human podocytes; Col I treated human podocytes) was “mildly decreased”, the esterified cholesterol content (human podocytes; Col I treated human podocytes) was “increased” and the total cholesterol content (human podocytes; Col I treated human podocytes) was “increased total cholesterol content”. For the same molecule, the cellular triglyceride content (human podocytes; human podocytes after Col I treatment) was “increased”, the “number of lipid droplets per cell (BODIPY)” value (human podocytes; human podocytes, 50 μg/mL collagen, 18 hours, vs Ctrl) was “increased lipid droplet content” and the “free fatty acid uptake” value (human podocytes; human podocytes, collagen I treated vs Ctrl) was “increased”. For the same molecule, the “activation of DDR1 at the plasma membrane” value (DDR1; human podocytes, plasma membrane fraction) was “leads to activation of DDR1” and the “DDR1 activation (pDDR1)” value (DDR1; normal human podocytes) was “leads to DDR1 activation”.
